Data published in patent publication US8822464B2, “N-aryl-piperazine derivatives and their use as positive allosteric modulators of mGluR5 receptors” (Boehringer Ingelheim International GmbH, priority 2011, dated 2014).

Biological target: T1, human recombinant mGluR5 (Homo sapiens, UniProt P41594)
T1 construct: expressed in transfected cells; host or cells: HEK 293 cell line; cultured with tetracycline, hygromycin and geneticin; tetracycline withdrawn 3-7 days before the assay
Experiment: positive modulation of mGluR5, calcium based FLIPR assay in HEK 293 cells
Settings: HEK 293 cell line expressing human recombinant mGluR5; peak height of Ca release fluorescence signal after glutamate at approximately 5% basal stimulation; nonlinear regression
In short: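 HEK 293 cells expressing human mGluR5, tetracycline-free 3-7 days, Calcium-4 dye-loaded in Ringer solution pH 7.4; 1% DMSO final. Compound added 5 min before glutamate at ~5% of maximal effect; peak Ca2+ fluorescence normalized to basal glutamate (100%) and 10 μM CDPPB (200%); EC50 by nonlinear regression.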

T1 sequence (P41594 21-1212): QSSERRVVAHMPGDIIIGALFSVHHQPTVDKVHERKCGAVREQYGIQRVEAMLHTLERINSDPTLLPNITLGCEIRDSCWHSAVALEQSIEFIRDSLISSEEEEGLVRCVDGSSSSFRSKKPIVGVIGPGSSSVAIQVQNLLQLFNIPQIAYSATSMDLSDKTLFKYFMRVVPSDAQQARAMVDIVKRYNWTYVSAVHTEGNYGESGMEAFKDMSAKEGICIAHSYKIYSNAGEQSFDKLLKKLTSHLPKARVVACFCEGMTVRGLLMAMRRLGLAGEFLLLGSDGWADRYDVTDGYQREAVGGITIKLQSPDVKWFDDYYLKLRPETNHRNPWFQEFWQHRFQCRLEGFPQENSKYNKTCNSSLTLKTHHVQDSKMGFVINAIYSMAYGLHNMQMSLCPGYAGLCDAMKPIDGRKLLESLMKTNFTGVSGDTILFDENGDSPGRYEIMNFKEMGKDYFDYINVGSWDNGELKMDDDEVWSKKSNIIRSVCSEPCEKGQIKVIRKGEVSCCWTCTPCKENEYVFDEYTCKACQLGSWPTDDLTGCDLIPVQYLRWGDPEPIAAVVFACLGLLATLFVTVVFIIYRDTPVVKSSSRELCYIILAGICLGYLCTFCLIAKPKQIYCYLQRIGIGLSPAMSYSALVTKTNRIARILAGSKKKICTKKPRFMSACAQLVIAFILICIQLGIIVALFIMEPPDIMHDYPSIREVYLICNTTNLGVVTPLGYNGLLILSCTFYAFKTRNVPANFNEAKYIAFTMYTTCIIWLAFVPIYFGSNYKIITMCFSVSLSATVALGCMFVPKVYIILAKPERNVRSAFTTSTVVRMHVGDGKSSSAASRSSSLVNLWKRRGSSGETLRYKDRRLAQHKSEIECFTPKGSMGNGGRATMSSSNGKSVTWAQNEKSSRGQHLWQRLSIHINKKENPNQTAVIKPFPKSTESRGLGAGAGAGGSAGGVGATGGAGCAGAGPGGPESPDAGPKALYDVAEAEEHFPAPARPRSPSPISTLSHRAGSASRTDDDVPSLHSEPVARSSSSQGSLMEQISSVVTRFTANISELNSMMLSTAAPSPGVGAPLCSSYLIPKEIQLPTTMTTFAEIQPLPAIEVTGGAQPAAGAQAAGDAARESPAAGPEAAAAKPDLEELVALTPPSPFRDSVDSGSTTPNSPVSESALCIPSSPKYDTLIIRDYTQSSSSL

| EC50 | SMILES |
| --- | --- |
| 490 nM | CCc1cc(-c2cccc(C#N)c2)nn1CC(=O)N1CCN(c2cc(OC)ncn2)CC1 [Example 7.01.163] |
| 42 nM | Cc1cccc(-c2cc(-c3ccccc3)nn2CC(=O)N2CCN(c3ncccn3)CC2)c1 [Example 7.01.164] |
| 4 nM | Cc1cccc(-c2cc(-c3ccccc3)n(CC(=O)N3CCN(c4ncccn4)CC3)n2)c1 [Example 7.01.165] |
| 8 nM | Cc1cccc(-c2cc(-c3ccccc3)n(CC(=O)N3CCN(c4ccccn4)CC3)n2)c1 [Example 7.01.166] |
| 7 nM | N#Cc1cccc(-c2cc(-c3ccccc3)n(CC(=O)N3CCN(c4ncccn4)CC3)n2)c1 [Example 7.01.167] |
| 12 nM | N#Cc1cccc(-c2cc(-c3ccccc3)n(CC(=O)N3CCN(c4ccccn4)CC3)n2)c1 [Example 7.01.168] |
| 11 nM | COc1cnc(N2CCN(C(=O)Cn3nc(-c4cccc(C#N)c4)cc3-c3ccccc3)CC2)nc1 [Example 7.01.169] |
| 22 nM | COc1cc(N2CCN(C(=O)Cn3nc(-c4cccc(C#N)c4)cc3-c3ccccc3)CC2)ncn1 [Example 7.01.170] |
| 9 nM | COc1cnc(N2CCN(C(=O)Cn3nc(-c4cccc(C)c4)cc3-c3ccccc3)CC2)nc1 [Example 7.01.171] |
| 152 nM | N#Cc1cccc(-c2cc(-c3ccccc3)nn2CC(=O)N2CCN(c3ncccn3)CC2)c1 [Example 7.01.172] |
| 11 nM | COc1cc(N2CCN(C(=O)Cn3nc(-c4cccc(C)c4)cc3-c3ccccc3)CC2)ncn1 [Example 7.01.173] |
| 3 nM | O=C(Cn1nc(-c2ccc(OC(F)F)cc2)cc1-c1ccccc1)N1CCN(c2ncccn2)CC1 [Example 7.01.174] |
| 10 nM | O=C(Cn1nc(-c2ccc(OC(F)F)cc2)cc1-c1ccccc1)N1CCN(c2ccccn2)CC1 [Example 7.01.175] |
| 10 nM | COc1cc(N2CCN(C(=O)Cn3nc(-c4ccc(OC(F)F)cc4)cc3-c3ccccc3)CC2)ncn1 [Example 7.01.176] |
| 24 nM | COc1ccc(-c2cc(-c3ccccc3)n(CC(=O)N3CCN(c4ncccn4)CC3)n2)cc1C [Example 7.01.177] |
| 21 nM | O=C(Cn1nc(-c2ccc(OC(F)F)cn2)cc1-c1ccccc1)N1CCN(c2ncccn2)CC1 [Example 7.01.178] |
| 46 nM | O=C(Cn1nc(-c2ccc(OC(F)F)cn2)cc1-c1ccccc1)N1CCN(c2ccccn2)CC1 [Example 7.01.179] |
| 64 nM | COc1cc(N2CCN(C(=O)Cn3nc(-c4ccc(OC(F)F)cn4)cc3-c3ccccc3)CC2)ncn1 [Example 7.01.180] |
| 130 nM | CCc1cc(-c2ccc(C)c(F)c2)nn1CC(=O)N1CCN(c2ncccn2)CC1 [Example 7.01.181] |
| 434 nM | CCc1cc(-c2ccc(C)c(F)c2)nn1CC(=O)N1CCN(c2ccccn2)CC1 [Example 7.01.182] |
| 318 nM | CCc1cc(-c2ccc(C)c(F)c2)nn1CC(=O)N1CCN(c2cc(OC)ncn2)CC1 [Example 7.01.183] |

| EC50 | SMILES |
| --- | --- |
| 145 nM | COc1cc(N2CCN(C(=O)Cn3nc(-c4ccc(OC)c(C)c4)cc3-c3ccccc3)CC2)ncn1 [Example 7.01.184] |
| 442 nM | CCCc1cc(-c2ccc(F)c(C)n2)nn1CC(=O)N1CCN(c2ncccn2)CC1 [Example 7.01.185] |
| 441 nM | CCCc1cc(-c2ccc(F)c(C)n2)nn1CC(=O)N1CCN(c2ccccn2)CC1 [Example 7.01.186] |
| 360 nM | CCCc1cc(-c2ccc(F)c(C)n2)nn1CC(=O)N1CCN(c2cc(OC)ncn2)CC1 [Example 7.01.187] |
| 27 nM | Cc1ccc(-c2cc(-c3ccccc3)n(CC(=O)N3CCN(c4ncccn4)CC3)n2)cc1F [Example 7.01.188] |
| 48 nM | Cc1ccc(-c2cc(-c3ccccc3)n(CC(=O)N3CCN(c4ccccn4)CC3)n2)cc1F [Example 7.01.189] |
| 47 nM | COc1cc(N2CCN(C(=O)Cn3nc(-c4ccc(C)c(F)c4)cc3-c3ccccc3)CC2)ncn1 [Example 7.01.190] |
| 7 nM | O=C(Cn1nc(-c2ccc(C(F)F)cc2)cc1-c1ccccc1)N1CCN(c2ncccn2)CC1 [Example 7.01.191] |
| 15 nM | COc1cc(N2CCN(C(=O)Cn3nc(-c4ccc(C(F)F)cc4)cc3-c3ccccc3)CC2)ncn1 [Example 7.01.192] |
| 35 nM | O=C(Cn1nc(-c2ccccc2)cc1-c1ccccc1)N1CCN(c2ncccn2)CC1 [Example 7.02.01, 2-(3,5-diphenyl-pyrazol-1-yl)-1-(4-(2-pyrimidinyl)-1-piperazinyl)-ethanon] |
| 428 nM | O=C(Cn1nc(-c2ccccc2)cc1-c1ccccc1)N1CCN(c2cccnc2)CC1 [Example 7.02.02] |
| 29 nM | O=C(Cn1nc(-c2ccccc2)cc1-c1ccccc1)N1CCN(c2ccccn2)CC1 [Example 7.02.03] |
| 393 nM | O=C(Cn1nc(-c2ccccc2)cc1-c1ccccc1)N1CCN(c2ccccc2)CC1 [Example 7.02.04] |
| 85 nM | O=C(Cn1nc(-c2ccccc2)cc1-c1ccccc1)N1CCN(c2cnccn2)CC1 [Example 7.02.05] |
| 581 nM | O=C(Cn1nc(-c2ccccc2)cc1-c1ccccc1)N1CCN(c2cccnc2)CC1 [Example 7.02.06] |
| 853 nM | O=C(Cn1nc(-c2ccccc2)cc1-c1ccccc1)N1CCN(c2cc3ccccc3cn2)CC1 [Example 7.02.07] |
| 934 nM | N#Cc1ccc(N2CCN(C(=O)Cn3nc(-c4ccccc4)cc3-c3ccccc3)CC2)nc1 [Example 7.02.08] |
| 298 nM | N#Cc1cccnc1N1CCN(C(=O)Cn2nc(-c3ccccc3)cc2-c2ccccc2)CC1 [Example 7.02.09] |
| 91 nM | O=C(Cn1nc(-c2ccccc2)cc1-c1ccccc1)N1CCN(c2ncc(Br)cn2)CC1 [Example 7.02.11] |
| 1260 nM | O=C(Cn1nc(-c2ccccc2)cc1-c1ccccc1)N1CCN(c2nccc(C(F)(F)F)n2)CC1 [Example 7.02.12] |
| 696 nM | O=C(Cn1nc(-c2ccccc2)cc1-c1ccccc1)N1CCN(c2cc(C(F)(F)F)ccn2)CC1 [Example 7.02.13] |

| EC50 | SMILES |
| --- | --- |
| 129 nM | O=C(Cn1nc(-c2ccccc2)cc1-c1ccccc1)N1CCN(c2ncncn2)CC1 [Example 7.02.14] |
| 153 nM | COCc1cc(-c2ccc(F)c(C)c2)nn1CC(=O)N1CCN(c2ncccn2)CC1 [Example 7.02.15] |
| 237 nM | COCc1cc(-c2ccc(F)c(C)c2)nn1CC(=O)N1CCN(c2ccccn2)CC1 [Example 7.02.16] |
| 182 nM | COCc1cc(-c2ccc(F)c(C)c2)nn1CC(=O)N1CCN(c2cc(OC)ccn2)CC1 [Example 7.02.17] |
| 211 nM | COCc1cc(-c2ccc(F)c(C)c2)nn1CC(=O)N1CCN(c2cc(OC)ncn2)CC1 [Example 7.02.18] |
| 1200 nM | COCc1cc(-c2ccc(F)c(C)c2)nn1CC(=O)N1CCN(c2cccnn2)CC1 [Example 7.02.19] |
| 183 nM | COCc1cc(-c2ccc(F)c(C)c2)nn1CC(=O)N1CCN(c2ncnc3[nH]cnc23)CC1 [Example 7.02.20] |
| 77 nM | Cc1cc(-c2cc(C)n(CC(=O)N3CCN(c4ccccn4)CC3)n2)ccc1F [Example 7.02.21] |
| 85 nM | COc1ccnc(N2CCN(C(=O)Cn3nc(-c4ccc(F)c(C)c4)cc3C)CC2)c1 [Example 7.02.22] |
| 60 nM | COc1cc(N2CCN(C(=O)Cn3nc(-c4ccc(F)c(C)c4)cc3C)CC2)ncn1 [Example 7.02.23] |
| 340 nM | Cc1cc(-c2cc(C)n(CC(=O)N3CCN(c4cccnn4)CC3)n2)ccc1F [Example 7.02.24] |
| 92 nM | Cc1cc(-c2cc(C)n(CC(=O)N3CCN(c4ncnc5[nH]cnc45)CC3)n2)ccc1F [Example 7.02.25] |
| 36 nM | COc1cnc(N2CCN(C(=O)Cn3nc(-c4ccc(F)c(C)c4)cc3C)CC2)nc1 [Example 7.02.26] |
| 243 nM | Cc1cc(-c2cc(-c3ccccc3)n(CC(=O)N3CCN(c4ccccc4)CC3)n2)ccc1F [Example 7.02.27] |
| 31 nM | COc1ccc(-c2cc(-c3ccc(OC)cc3)n(CC(=O)N3CCN(c4ncccn4)CC3)n2)cc1 [Example 7.03.01] |
| 696 nM | O=C(Cn1nc(-c2ccccc2F)cc1-c1ccccc1F)N1CCN(c2ncccn2)CC1 [Example 7.04.01] |
| 81 nM | O=C(Cn1nc(C2CCCCC2)cc1-c1ccc(F)cc1)N1CCN(c2ncccn2)CC1 [Example 7.04.02] |
| 392 nM | COC(=O)c1ccc(-c2cc(-c3ccccc3)n(CC(=O)N3CCN(c4ncccn4)CC3)n2)cc1 [Example 7.04.03] |
| 40 nM | Cc1cc(-c2cc(-c3ccccc3)n(CC(=O)N3CCN(c4cc(OCCN5CCOCC5)ncn4)CC3)n2)ccc1F [Example 7.05.01, 2-[3-(4-fluoro-3-methyl-phenyl)-5-phenyl-pyrazol-1-yl]-1-{4-[6-(2-morpholin-4-yl-ethoxy)-pyrimidin-4-yl]-piperazin-1-yl}-ethanone] |
| 38 nM | Cc1cc(-c2cc(-c3ccccc3)n(CC(=O)N3CCN(c4cc(OCC(C)O)ncn4)CC3)n2)ccc1F (centres unmarked) [Example 7.05.02] |
